In patent US20060079512A1, “Dibenzodiazepinone analogues, processes for their production and their use as pharmaceuticals” (Ecopia BioSciences, Inc., priority 2003, published 2006):
“Also recorded” adds a separate entry of the source.

What was measured:
[1] = system: HT-29 (colorectal carcinoma); assay: In vitro cytotoxic activity (GI50), method (a), propidium iodide; format: cell-based; settings: Homo sapiens, HT-29; method (a), 96 hours; read-out: HT-29 (GI50 μM)
Procedure: (§1) Compounds were dissolved at 10 mM in DMSO. Dilution in vehicle to concentrations of 30, 10, 3, 1 and 0.3 μM were prepared immediately before assays. Depending on the cell line's growth characteristics, 4000-10000 cells were plated in two 96-wells pates (day 0) and incubated for 16 hours. The following day, propidium iodide was added to one of the two plates and fluorescence measured (Tz). Test compounds were added to the second plate, as well as vehicle control, and cells further incubated for 96 hours. Each compound was tested at each concentration and in triplicates. The equivalent cell number was determined after adding propidium iodide by measuring the signal by fluorescence (C for control).

[2] = system: MDA-MB-231 (mammary gland adenocarcinoma); assay: as above; format: cell-based; settings: Homo sapiens, MDA-MB-231; method (a), 96 hours; read-out: MDA-MB-231 (GI50 μM)
Procedure: as §1

[3] = system: PC-3 (prostate adenocarcinoma); assay: as above; format: cell-based; settings: method (a), 96 hours; read-out: PC-3 (GI50 μM)
Procedure: as §1

SF268 (CNS) = assay: as above; format: cell-based; settings: Homo sapiens, SF-268; method (a), 96 hours; read-out: SF-268 (GI50 μM)
Procedure: as §1

C6 glioblastoma [4] = assay: In vivo efficacy in glioma model, first series (treatment started 24 hrs after inoculation); design: species or system Mus musculus nude mice
Procedure: The aim of this study was to test whether Compound 1 administered by the i.p. route prevents or delays tumor growth in C6 glioblastoma cell-bearing mice, and to determine an effective dosage regimen.
(§2) Animal experiments were performed according to ethical guidelines of animal experimentation (Charte du comité d'éthique du CNRS, juillet 2003) and the English guidelines for the welfare of animals in experimental neoplasia (WORKMAN, P., […], P., BALKWILL, F., et al. (1998). United Kingdom Coordinating Committee on Cancer Research (UKCCCR) Guidelines for the welfare of animals in experimental neoplasia (Second Edition, July 1997; British Journal of Cancer, 77:1-10). Any dead or apparently sick mice were promptly removed and replaced with healthy mice. Sick mice were euthanized upon removal from the cage. Animals were maintained in rooms under controlled conditions of temperature (23±2° C.), humidity (45±5%), photoperiodicity (12 hrs light/12 hrs dark) and air exchange. Animals were housed in polycarbonate cages (5/single cage) that were equipped to provide food and water. Animal bedding consisted of sterile wood shavings that were replaced every other day. Food was provided ad libitum, being placed in the metal lid on the top of the cage. Autoclaved tap water was provided ad libitum. Water bottles were equipped with rubber stoppers and sipper tubes. Water bottles were cleaned, sterilized and replaced once a week. Two different numbers engraved on two earrings identified the animals. Each cage was labeled with a specific code.
(§3) Tumor Cell Line: The C6 cell line was cloned from a rat glial tumor induced by N-nitrosomethyurea (NMU) according to Premont et al. (Premont J, Benda P, Jard S., [3H] norepinephrine binding by rat glial cells in culture. Lack of correlation between binding and adenylate cyclase activation. Biochim Biophys Acta. 1975 Feb. 13;381(2):368-76.) after series of alternate culture and animal passages. Cells were grown as adherent monolayers at 37° C. in a humidified atmosphere (5% CO2, 95% air). The culture medium was DMEM supplemented with 2 mM L-glutamine and 10% fetal bovine serum. For experimental use, tumor cells were detached from the culture flask by a 10 min treatment with trypsin-versen. The cells were counted in a hemocytometer and their viability assessed by 0.25% trypan blue exclusion.
(§4) Preparation of the Test Article: For the test article, the following procedure was followed for reconstitution (performed immediately preceding injection). The vehicle consisted of a mixture of benzyl alcohol (1.5%), ethanol (8.5%), propylene glycol (27%), PEG 400 (27%), dimethylacetamide (6%) and water (30%). The vehicle solution was first vortexed in order to obtain a homogeneous liquid. 0.6 mL of the vortexed vehicle solution was added to each vial containing the test article (Compound 1). Vials were mixed thoroughly by vortexing for 1 minute and inverted and shaken vigorously. Vials were mixed again prior to injection into each animal.
(§5) Animal Inoculation with tumor cells: Experiment started at day 0 (D0). On D0, mice received a superficial intramuscular injection of C6 tumor cells (5×10^5 cells) in 0.1 mL of DMEM complete medium into the upper right posterior leg.
In a first series of experiments, treatment started 24 hrs following inoculation of C6 cells. On the day of the treatment, each mouse was slowly injected with 100 μL of test or control articles by the i.p. route. For all groups, treatment was performed until the tumor volume of the saline-treated mice (group 1) reached approximately 3 cm^3 (around day 16). Mice of group 1 were treated daily with a saline isosmotic solution for 16 days. Mice of group 2 were treated daily with the vehicle solution for 16 days. Mice of group 3 were treated daily with 10 mg/kg of Compound 1 for 16 days. Mice of group 4 were treated every two days with 30 mg/kg of Compound 1 and received 8 treatments. […]

C6 glioblastoma [5] = assay: In vivo efficacy in glioma model, second series (treatment started at day 10); design: species or system Mus musculus nude mice; settings: for Tumor volume (mm^3) (mean ± SEM): Q1 × 5; for % Inhibition: Q1 × 5, vs saline
Procedure: as §2, §3, §4, §5
In a second series of experiments, treatment started at day 10 following inoculation of C6 cells when tumors became palpable (around 100 to 200 mm^3). Treatment was repeated daily for 5 consecutive days. On the day of the treatment, each mouse was slowly injected with 100 μL of Compound 1 by i.p. route. Mice of group 1 were treated daily with saline isosmotic solution. Mice of group 2 were treated daily with the vehicle solution. Mice of group 3 were treated daily with 20 mg/kg of Compound 1. Mice of group 4 were treated daily with 30 mg/kg of Compound 1. Mice were treated until the tumor volume of the saline-treated control mice (group 1) reached around 4 cm^3. Tumor volume was measured every second day until the end of the treatment using callipers. […] An asterisk in the P value column of Table 20 indicates a statistically significant value, while “ns” signifies not significant.

[6] = system: rat glioblastoma tumor (C6) xenografts; assay: Antitumor efficacy against rat glioblastoma tumor (C6) xenografts; format: in vivo, female swiss nude mice; settings: intravenous, 75 mg/kg (qd5/2/qd5)
Description: Antitumor efficacy of Compound 2 against rat glioblastoma tumor (C6) xenografts in female swiss nude mice was accomplished as described above.

## CC(C)=CCC/C(C)=C/CC/C(C)=C/CN1C(=O)c2cccc(O)c2Nc2c(O)cc(O)cc21 [Compound 1, 10-farnesyl-4,6,8-trihydroxy-5,10-dihydrodibenzo[b,e][1,4]diazepin-11-one]
[1]
  GI50: 11.2 µM
[2]
  GI50: 1.79 µM
[3]
  GI50: 1.95 µM
SF268 (CNS)
  GI50: 1.96 µM
C6 glioblastoma [4]; 10 mg/kg i.p., Q1 × 16
  Tumor volume (mm^3) (mean ± SEM): 1,220.4 ± 283.46 mm^3
C6 glioblastoma [4]; 10 mg/kg i.p., Q1 × 16, vs saline
  % Inhibition: 59.4%
C6 glioblastoma [4]; 30 mg/kg i.p., Q2 × 8
  Tumor volume (mm^3) (mean ± SEM): 1,236.9 ± 233.99 mm^3
C6 glioblastoma [4]; 30 mg/kg i.p., Q2 × 8, vs saline
  % Inhibition: 58.8%
C6 glioblastoma [4]; 30 mg/kg i.p., Q3 × 6
  Tumor volume (mm^3) (mean ± SEM): 1,184.1 ± 221.45 mm^3
C6 glioblastoma [4]; 30 mg/kg i.p., Q3 × 6, vs saline
  % Inhibition: 60.6%
C6 glioblastoma [4]; 10-30 mg/kg i.p., compared to the saline group
  mean value of the tumor volume of all treated groups: significantly reduced
C6 glioblastoma [5]; 20 mg/kg i.p.
  Tumor volume (mm^3) (mean ± SEM): 1,721.5 ± 374.79 mm^3
  % Inhibition: 60.5%
C6 glioblastoma [5]; 30 mg/kg i.p.
  Tumor volume (mm^3) (mean ± SEM): 1,131.6 ± 525.21 mm^3
  % Inhibition: 74.1%
C6 glioblastoma [5]; 20-30 mg/kg
  Histological analysis of tumor sections: cell density of tumor treated with Compound 1 appears decreased; also recorded: cell density was decreased and the nuclei of remaining tumor cells appeared larger and pycnotic
C6 glioblastoma [5]; 20-30 mg/kg i.p., compared to the saline group
  mean value of the tumor volume of all treated groups: significantly reduced

## CC(C)=CCC/C(C)=C/CC/C(C)=C/CN1C(=O)c2cccc(O)c2N(C)c2c(O)cc(O)cc21 [Compound 2, 10-farnesyl-4,6,8-trihydroxy-5-methyl-5,10-dihydro-dibenzo[b,e][1,4]diazepin-11-one]
[6]
  Antitumor efficacy: Significant efficacy
In vivo; CD-1 nu/nu, mouse, in vivo, ip
  NOAEL: 30 mg/kg
In vivo; CD-1 nu/nu, mouse, in vivo, iv
  NOAEL: 75 mg/kg
In vivo; CD-1 nu/nu, mouse, in vivo, ip, acute
  MTD: ≥ 50 mg/kg
In vivo; for several days post-injection
  weight losses: about 7%
